Data set [1] has as its system FLR3-1, R6FLR-N and JFH1 cells. In words: Cytotoxic activity of inhibitors by WST assay in FLR3-1, R6FLR-N and JFH1 cells. Format: cell-based. How it is done: HCV-replicating cells were incubated with a BGT-1 inhibitor tiagabine or an AKR1C1 inhibitor flufenamic acid, and the inhibitory effect against HCV replication was evaluated by a luciferase assay. Tiagabine was dissolved in sterile distilled water at a final concentration of 1 mM, and flufenamic acid was dissolved in 1% EtOH at a final concentration of 1 μM-1 mM. The assay was performed after a reaction period of 24 hours in expectation of the rapid action of the inhibitors. The HCV-replicating cells used were FLR3-1, R6FLR-N (both genotype 1b) and JFH1 (genotype 2a: Kato et al., Gastroenterology, 2003, 125 (6):1808-17). The cells incubated in the medium alone were used as “controls”. The experiment was performed in triplicate, and the average±S.D. was graphically shown. Statistical analysis was performed by Student's t-test.
(§1) In the same manner as described above, the cytotoxic activity of tiagabine (1 mM), NNC05-2090 (0.1-10 μM), and flufenamic acid (1 μM-1 mM) against HCV-replicating cells was evaluated by the WST assay. The experiment was performed in triplicate, and the average±S.D. was graphically shown. Statistical analysis was performed by Student's t-test.

Data set [2] concerns HCV replication in R6FLR-N cells. In words: HCV replication activity by luciferase assay in R6FLR-N replicon cells. It is filed as cell-based, Hepatitis C virus (genotype 1b). The conditions noted are these: for replication of HCV (luminescence relative to control siRNA group defined as 100%): 4.2 nM siRNA, 72 hours post-treatment; for minimal effective concentration showing a significant inhibitory effect against HCV replication vs. the control siRNAs: data not shown. From the text:
The inhibitory effect against HCV replication can be determined by using HCV replicon cells (Lohmann et al., Science, 1999, 285 (5424):110-113). HCV replicon cells bear a luciferase gene as an indicator gene fused to a nonstructural protein (NS) region necessary for the replication of HCV. HCV replication activity can be measured by luciferase assays. Viral inhibitory activity can also be evaluated by using HCV infection systems (Wakita et al., Nat. Med. 2005, 11 (7), 791-796).
In this study, HCV-replicating cells (FLR3-1 and R6FLR-N) established from Huh-7 replicon cells (Lohmann et al., Science, 1999, 285 (5424):110-3) containing a luciferase-neo fusion gene and three HCV nonstructural protein regions (NS3-NS5b) after G418 selection were used. The use of these cells allows HCV replication activity to be measured by a luciferase assay. The HCV-replicating cells (FLR3-1 or R6FLR-N) were reverted by treatment with interferon α (100 IU/ml) for 72 hours or more to lower the HCV replication level and used as control cells (see Guo J T, Bichko V V, Seeger C., J. Virol. 2001, 75 (18):8516-23). The cells were incubated in Dulbecco's modified Eagle's medium (DMEM) GlutaMax I containing penicillin (100 U/ml), streptomycin (100 μg/ml), G418 (500 μg/ml), and 10% FCS (SIGMA).
The reverse transfection of the siRNAs was performed as follows. In each well of a 96-well plate (Falcon) containing Opti-MEM I medium was added each siRNA at a final concentration of 4.2, 12.6, and 25.2 nM and the plate was gently shaken. Lipofectamine™ RNAiMAX was mixed before use and added to the well (0.1 μl/well), and the plate was gently shaken and allowed to stand for 10-20 minutes at room temperature. R6FLR-N cells were plated at a density of 5×10^3 cells/well and incubated at 37° C. in 5% CO2 for 5 hours. The culture medium was replaced with 10% DMEM-Glutamax, and the cells were further incubated at 37° C. in 5% CO2. A plate containing the medium and Lipofectamine alone without siRNA (“Lipo”) and a plate containing the medium alone (“No”) were used as controls.
After incubation for 24, 48, and 72 hours, the HCV replication activity was measured by a luciferase assay. The replication activity is expressed relative to the luminescence intensity in the groups treated with the control siRNAs (“Ctrl”) defined as 100%. The experiment was performed in triplicate, and the average±S.D. was graphically shown. Statistical analysis was performed by Student's t-test.
FLR3-1 cells and R6FLR-N cells were incubated with a rabbit anti-BGT-1 polyclonal antibody (abcam) or a mouse anti-AKR1C1 polyclonal antibody (Abnova) for 72 hours. After incubation, the relative luminescence unit (RLU) was measured by a luciferase assay to evaluate the inhibitory activity against HCV replication. Normal rabbit serum was used as a control of the anti-BGT-1 antibody, and normal mouse serum was used as a control of the anti-AKR1C1 antibody. Each antibody was diluted at 1:100-1:10000 in 3% BSA/PBS. The experiment was performed in triplicate, and the average±S.D. was graphically shown. Statistical analysis was performed by Student's t-test.
R6FLR-N cells were also incubated with another BGT-1 inhibitor NNC05-2090 for 24-72 hours, and then analyzed by a luciferase assay in the same manner. NNC05-2090 was dissolved in DMSO at a final concentration of 0.1-10 μM (FIG. 7).

In another data set the test system is R6FLR-N cells. In words: Cytotoxic activity against HCV-replicating cells (Cell Counting Kit-8 / WST), R6FLR-N. Format: cell-based. How it is done:
In the same manner as described above, the siRNA were reversely transfected into R6FLR-N cells in a 96-well plate (Falcon). After incubation for 24, 48, and 72 hours, the number of viable cells was counted by a chromogenic reaction at 37° C. for 1 hour using Cell Counting Kit-8 (DOJINDO) following the manufacturer's protocol. The results are expressed relative to the cell survival rate in the groups treated with the control siRNAs defined as 100%. The experiment was performed in triplicate, and the average±S.D. was graphically shown. Statistical analysis was performed by Student's t-test.
FLR3-1 cells and R6FLR-N cells were incubated with the rabbit anti-BGT-1 polyclonal antibody or mouse anti-AKR1C1 polyclonal antibody described above for 72 hours. After incubation, the OD450/650 was measured by a chromogenic reaction at 37° C. for 1 hour using Cell Counting Kit-8 (DOJINDO) following the manufacturer's protocol. Normal rabbit serum was used as a control of the anti-BGT-1 antibody, and normal mouse serum was used as a control of the anti-AKR1C1 antibody. Each antibody was diluted at 1:100-1:10000 in 3% BSA/PBS. The experiment was performed in triplicate, and the average±S.D. was graphically shown. Statistical analysis was performed by Student's t-test.
as §1

A further data set concerns BGT-1 gene. In words: Inhibition of BGT-1 gene expression by siRNA, RT-PCR. It is filed as cell-based, Homo sapiens. The settings on record: data not shown. How it is done: (§2) The expression of BGT-1 and AKR1C1 and the inhibition of the expression by their siRNAs were analyzed by Western blotting and PCR.
(§3) The inhibition of the expression of the BGT-1 gene and the AKR1C1 gene by their siRNAs was also verified by RT-PCR using the following primers (data not shown): […]

Another data set relates to AKR1C1 gene. In words: Inhibition of AKR1C1 gene expression by siRNA, RT-PCR. It is filed as cell-based, Homo sapiens. The settings on record: data not shown. How it is done:
as §2, §3

On to `O=C(O)c1ccccc1Nc1cccc(C(F)(F)F)c1` [flufenamic acid], for which the “OD value as % of the value of the 0 μM group (WST assay)” value in data set [1] (100 μM, all types of HCV-replicating cells) is no more than 80%.

For `COc1ccccc1C1(O)CCN(CCCn2c3ccccc3c3ccccc32)CC1` [NNC05-2090, 1-(3-(9H-carbazol-9-yl)-1-propyl)-4-(2-methoxyphenyl)-4-piperidinol, reference compound], the “RLU vs. the vehicle group (DMSO)” value in data set [2] (10 μM, 24 hours, R6FLR-N cells) was 30%. Also, the “OD value as % of the vehicle group (WST assay)” value in the data set with R6FLR-N cells (3 μM, 48 hours post-treatment) was “about 26%”; with R6FLR-N cells (10 μM, 24 hours post-treatment) it was “about 23%”.

On to `Cc1ccsc1C(=CCCN1CCC[C@@H](C(=O)O)C1)c1sccc1C` [tiagabine], for which the “cytotoxic activity against HCV-replicating cells (WST assay)” value in data set [1] (1 mM, 24 hours, FLR3-1, R6FLR-N, JFH1 cells) was “significantly injured HCV-replicating cells in only FLR3-1 cells”.

With “siRNA of BGT-1: siRNA of the BGT-1 gene, 5′-CAACAAGAUGGAGUUUGUGCUGUCA-3′, nucleotides 120-144 (chemistry not given here)”, the “replication of HCV (luminescence relative to control siRNA group defined as 100%)” value in data set [2] (R6FLR-N cells) is no more than 10±4%. Besides, the “minimal effective concentration showing a significant inhibitory effect against HCV replication vs. the control siRNAs” value in data set [2] is given as 0.5 nM. The “cytotoxic activity against HCV-replicating cells” value in the data set on R6FLR-N cells (any siRNA concentration tested (4.2, 12.6, 25.2 nM)) was “any significant cytotoxic activity was not detected”. In the data set with BGT-1 gene, the “inhibition of the expression of the BGT-1 gene by RT-PCR” value is “verified”.

On to “siRNA of AKR1C1: siRNA of the AKR1C1 gene, 5′-AAGUAAAGCUUUAGAGGCCACCAAA-3′, nucleotides 93-117 (chemistry not given here)”, for which the “replication of HCV (luminescence relative to control siRNA group defined as 100%)” value in data set [2] (R6FLR-N cells) came out at 40±1%. Also, the “minimal effective concentration showing a significant inhibitory effect against HCV replication vs. the control siRNAs” value in data set [2] is 0.5 nM. In addition, the “cell survival rate (relative to control siRNA group defined as 100%)” value in the data set on R6FLR-N cells (4.2 nM siRNA, 72 hours post-treatment) stood at 53±18%. Moreover, the “inhibition of the expression of the AKR1C1 gene by RT-PCR” value with AKR1C1 gene is on record as “verified”.

Values taken from patent US8466273B2, “Hepatitis C virus inhibitors” (priority 2008, dated 2013).
